From patent publication US20220119354A1, “DIAMINO-SUBSTITUTED PYRIDINES AND PYRIMIDINES AS HERBICIDES” (FMC Corporation, priority 2019, published 2022)

Legend:
Type in all cases: in vivo
[1] = tested on: foxtail, giant (Setaria faberii); assay: Test A postemergence, giant foxtail; conditions: 0 to 100 scale
Procedure, shortened: (§1)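 Greenhouse pot test, loam/sand soil. Pre: directed soil spray at planting; post: foliar spray at 1–2 leaf stage (2–10 cm). Chemical in non-phytotoxic solvent + surfactant. Visual rating ~10 d, 0 = no effect, 100 = complete control.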

rice (Oryza sativa) = assay: Test B flooded paddy test, rice; conditions: Flood, 250 g ai/ha, applied to paddy water, 2-leaf stage, visual evaluation after 13 to 15 d
Procedure, shortened: (§2)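 Rating: 0 = no effect, 100 = complete control, visual, relative to untreated plants. Conditions: 2-leaf stage, 3 cm flood kept constant, compound put directly into water, 13–15 d greenhouse.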

corn (Zea mays) = assay: Test A postemergence, corn; conditions: 0 to 100 scale
Procedure, shortened: as §1

[2] = tested on: pigweed (Amaranthus retroflexus); assay: Test A postemergence, pigweed; conditions: 0 to 100 scale
Procedure, shortened: as §1

[3] = tested on: barnyardgrass (Echinochloa crus-galli); assay: Test A postemergence, barnyardgrass; conditions: 0 to 100 scale
Procedure, shortened: as §1

[4] = tested on: pigweed (Amaranthus retroflexus); assay: Test A preemergence, pigweed; conditions: 0 to 100 scale
Procedure, shortened: as §1

[5] = tested on: ryegrass, Italian (Lolium multiflorum); assay: Test A postemergence, Italian ryegrass; conditions: 0 to 100 scale
Procedure, shortened: as §1

kochia (Kochia scoparia) [6] = assay: Test A postemergence, kochia; conditions: 0 to 100 scale
Procedure, shortened: as §1

kochia (Kochia scoparia) [7] = assay: Test A preemergence, kochia; conditions: 0 to 100 scale
Procedure, shortened: as §1

[8] = tested on: ryegrass, Italian (Lolium multiflorum); assay: Test A preemergence, Italian ryegrass; conditions: 0 to 100 scale
Procedure, shortened: as §1

[9] = tested on: wheat (Triticum aestivum); assay: Test A postemergence, wheat; conditions: 0 to 100 scale
Procedure, shortened: as §1

[10] = tested on: blackgrass (Alopecurus myosuroides); assay: Test A postemergence, blackgrass; conditions: 0 to 100 scale
Procedure, shortened: as §1

[11] = tested on: sedge, umbrella (small-flower umbrella sedge, Cyperus difformis); assay: Test B flooded paddy test, umbrella sedge; conditions: Flood, 250 g ai/ha, applied to paddy water, 2-leaf stage, visual evaluation after 13 to 15 d
Procedure, shortened: as §2

[12] = tested on: foxtail, giant (Setaria faberii); assay: Test A preemergence, giant foxtail; conditions: 0 to 100 scale
Procedure, shortened: as §1

[13] = tested on: barnyardgrass (Echinochloa crus-galli); assay: Test A preemergence, barnyardgrass; conditions: 0 to 100 scale
Procedure, shortened: as §1

[14] = tested on: galium (catchweed bedstraw, Galium aparine); assay: Test A postemergence, galium; conditions: 0 to 100 scale
Procedure, shortened: as §1

[15] = tested on: barnyardgrass (Echinochloa crus-galli); assay: Test B flooded paddy test, barnyardgrass; conditions: Flood, 250 g ai/ha, applied to paddy water, 2-leaf stage, visual evaluation after 13 to 15 d
Procedure, shortened: as §2

[16] = tested on: ragweed (common ragweed, Ambrosia elatior); assay: Test A postemergence, ragweed; conditions: 0 to 100 scale
Procedure, shortened: as §1

[17] = tested on: ducksalad (Heteranthera limosa); assay: Test B flooded paddy test, ducksalad; conditions: Flood, 250 g ai/ha, applied to paddy water, 2-leaf stage, visual evaluation after 13 to 15 d
Procedure, shortened: as §2

[18] = tested on: ragweed (common ragweed, Ambrosia elatior); assay: Test A preemergence, ragweed; conditions: 0 to 100 scale
Procedure, shortened: as §1

C[C@@H](Nc1ncc(C(F)(F)F)c(N)n1)c1cc2ccc(F)cc2o1 [Compound 8, N2-[(1R)-1-(6-fluoro-2-benzofuranyl)ethyl]-5-(trifluoromethyl)-2,4-pyrimidinediamine]
80: Plant response rating, Pigweed ([4]; 125 g ai/ha)
20%: Corn plant response rating (crop injury, 0 = no effect, 100 = complete kill) at 500 g/ha (corn (Zea mays); Zea mays, post-emergence, 240 h, 500 g ai/ha) | pest or weed control at 125 g/ha ([10]; Alopecurus myosuroides, post-emergence, 240 h, 125 g ai/ha, read-out: Plant response rating, Blackgrass)
100: Plant response rating, Pigweed ([4]; 500 g ai/ha) | Plant response rating, Foxtail, Giant ([12]; 500 g ai/ha) | Plant response rating, Ragweed ([18]; 500 g ai/ha)
100%: pest or weed control at 125 g/ha ([2]; Amaranthus retroflexus, post-emergence, 240 h, 125 g ai/ha, read-out: Plant response rating, Pigweed) | pest or weed control at 500 g/ha ([2]; Amaranthus retroflexus, post-emergence, 240 h, 500 g ai/ha, read-out: Plant response rating, Pigweed) | pest or weed control at 250 g/ha ([11]; Cyperus difformis, 360 h, read-out: Plant response rating, Sedge, Umbrella (0 to 100 scale, 0 is no effect, 100 is complete control))
50%: pest or weed control at 125 g/ha ([3]; Echinochloa crus-galli, post-emergence, 240 h, 125 g ai/ha, read-out: Plant response rating, Barnyardgrass)
40%: pest or weed control at 125 g/ha ([1]; Setaria faberi, post-emergence, 240 h, 125 g ai/ha, read-out: Plant response rating, Foxtail, Giant) | plant injury at 250 g/ha (rice (Oryza sativa); Oryza sativa, 360 h, read-out: Plant response rating, Rice (0 to 100 scale, 0 is no effect, 100 is complete control))
50: Plant response rating, Foxtail, Giant ([12]; 125 g ai/ha)
90: Plant response rating, Kochia (kochia (Kochia scoparia) [7]; 500 g ai/ha) | Plant response rating, Barnyardgrass ([13]; 500 g ai/ha) | Plant response rating, Ragweed ([18]; 125 g ai/ha)
60%: pest or weed control at 500 g/ha ([10]; Alopecurus myosuroides, post-emergence, 240 h, 500 g ai/ha, read-out: Plant response rating, Blackgrass)
98%: pest or weed control at 250 g/ha ([17]; Heteranthera limosa, 360 h, read-out: Plant response rating, Ducksalad (0 to 100 scale, 0 is no effect, 100 is complete control))
70%: pest or weed control at 125 g/ha ([14]; Galium, post-emergence, 240 h, 125 g ai/ha, read-out: Plant response rating, Galium)
0: Plant response rating, Ryegrass, Italian ([8]; 125 g ai/ha) | Plant response rating, Ryegrass, Italian ([8]; 500 g ai/ha) | Plant response rating, Barnyardgrass ([13]; 125 g ai/ha)
90%: pest or weed control at 500 g/ha ([1]; Setaria faberi, post-emergence, 240 h, 500 g ai/ha, read-out: Plant response rating, Foxtail, Giant) | pest or weed control at 500 g/ha ([3]; Echinochloa crus-galli, post-emergence, 240 h, 500 g ai/ha, read-out: Plant response rating, Barnyardgrass) | pest or weed control at 500 g/ha (kochia (Kochia scoparia) [6]; Bassia scoparia, post-emergence, 240 h, 500 g ai/ha, read-out: Plant response rating, Kochia) | pest or weed control at 500 g/ha ([14]; Galium, post-emergence, 240 h, 500 g ai/ha, read-out: Plant response rating, Galium) | pest or weed control at 125 g/ha ([16]; Ambrosia artemisiifolia, post-emergence, 240 h, 125 g ai/ha, read-out: Plant response rating, Ragweed) | pest or weed control at 500 g/ha ([16]; Ambrosia artemisiifolia, post-emergence, 240 h, 500 g ai/ha, read-out: Plant response rating, Ragweed)
80%: pest or weed control at 125 g/ha (kochia (Kochia scoparia) [6]; Bassia scoparia, post-emergence, 240 h, 125 g ai/ha, read-out: Plant response rating, Kochia)
0%: Corn plant response rating (crop injury, 0 = no effect, 100 = complete kill) at 125 g/ha (corn (Zea mays); Zea mays, post-emergence, 240 h, 125 g ai/ha) | pest or weed control at 125 g/ha ([5]; Lolium multiflorum, post-emergence, 240 h, 125 g ai/ha, read-out: Plant response rating, Ryegrass, Italian) | pest or weed control at 500 g/ha ([5]; Lolium multiflorum, post-emergence, 240 h, 500 g ai/ha, read-out: Plant response rating, Ryegrass, Italian) | plant injury at 125 g/ha ([9]; Triticum aestivum, post-emergence, 240 h, 125 g ai/ha, read-out: Plant response rating, Wheat) | plant injury at 500 g/ha ([9]; Triticum aestivum, post-emergence, 240 h, 500 g ai/ha, read-out: Plant response rating, Wheat) | pest or weed control at 250 g/ha ([15]; Echinochloa crus-galli, 360 h, read-out: Plant response rating, Barnyardgrass (0 to 100 scale, 0 is no effect, 100 is complete control))
60: Plant response rating, Kochia (kochia (Kochia scoparia) [7]; 125 g ai/ha)

C[C@@H](Nc1ncc(C(F)(F)F)c(N)n1)c1cc2cc(F)ccc2o1 [Compound 9]
60: Plant response rating, Kochia (kochia (Kochia scoparia) [7]; 125 g ai/ha) | Plant response rating, Ragweed ([16]; 125 g ai/ha)
70: Plant response rating, Barnyardgrass ([3]; 500 g ai/ha) | Plant response rating, Kochia (kochia (Kochia scoparia) [7]; 500 g ai/ha)
80: Plant response rating, Kochia (kochia (Kochia scoparia) [6]; 125 g ai/ha) | Plant response rating, Barnyardgrass ([13]; 125 g ai/ha) | Plant response rating, Barnyardgrass ([13]; 500 g ai/ha) | Plant response rating, Galium ([14]; 125 g ai/ha) | Plant response rating, Galium ([14]; 500 g ai/ha) | Plant response rating, Ragweed ([16]; 500 g ai/ha)
20: Plant response rating, Corn (corn (Zea mays); 500 g ai/ha)
40: Plant response rating, Foxtail, Giant ([12]; 125 g ai/ha)
30: Plant response rating, Ryegrass, Italian ([5]; 500 g ai/ha) | Plant response rating, Blackgrass ([10]; 500 g ai/ha)
90: Plant response rating, Foxtail, Giant ([1]; 500 g ai/ha) | Plant response rating, Pigweed ([2]; 125 g ai/ha) | Plant response rating, Pigweed ([2]; 500 g ai/ha) | Plant response rating, Kochia (kochia (Kochia scoparia) [6]; 500 g ai/ha) | Plant response rating, Foxtail, Giant ([12]; 500 g ai/ha) | Plant response rating, Ragweed ([18]; 500 g ai/ha)
50: Plant response rating, Ryegrass, Italian ([8]; 500 g ai/ha)
0: Plant response rating, Foxtail, Giant ([1]; 125 g ai/ha) | Plant response rating, Rice (0 to 100 scale, 0 is no effect, 100 is complete control) (rice (Oryza sativa)) | Plant response rating, Corn (corn (Zea mays); 125 g ai/ha) | Plant response rating, Ryegrass, Italian ([5]; 125 g ai/ha) | Plant response rating, Ryegrass, Italian ([8]; 125 g ai/ha) | Plant response rating, Wheat ([9]; 125 g ai/ha) | Plant response rating, Wheat ([9]; 500 g ai/ha) | Plant response rating, Blackgrass ([10]; 125 g ai/ha) | Plant response rating, Sedge, Umbrella (0 to 100 scale, 0 is no effect, 100 is complete control) [11] | Plant response rating, Barnyardgrass (0 to 100 scale, 0 is no effect, 100 is complete control) [15] | Plant response rating, Ducksalad (0 to 100 scale, 0 is no effect, 100 is complete control) [17] | Plant response rating, Ragweed ([18]; 125 g ai/ha)
100: Plant response rating, Pigweed ([4]; 125 g ai/ha) | Plant response rating, Pigweed ([4]; 500 g ai/ha)
10: Plant response rating, Barnyardgrass ([3]; 125 g ai/ha)

Cc1ccc2oc([C@@H](C)Nc3ncc(C(F)(F)F)c(N)n3)cc2c1 [Compound 10]
50: Plant response rating, Galium ([14]; 125 g ai/ha) | Plant response rating, Ragweed ([18]; 500 g ai/ha)
60: Plant response rating, Pigweed ([4]; 500 g ai/ha) | Plant response rating, Foxtail, Giant ([12]; 500 g ai/ha)
20: Plant response rating, Barnyardgrass ([3]; 500 g ai/ha) | Plant response rating, Ryegrass, Italian ([8]; 500 g ai/ha) | Plant response rating, Blackgrass ([10]; 500 g ai/ha) | Plant response rating, Barnyardgrass ([13]; 125 g ai/ha) | Plant response rating, Ragweed ([16]; 125 g ai/ha)
90: Plant response rating, Pigweed ([2]; 500 g ai/ha)
30: Plant response rating, Barnyardgrass ([13]; 500 g ai/ha)
40: Plant response rating, Foxtail, Giant ([1]; 500 g ai/ha)
80: Plant response rating, Pigweed ([2]; 125 g ai/ha) | Plant response rating, Ragweed ([16]; 500 g ai/ha)
70: Plant response rating, Galium ([14]; 500 g ai/ha)
0: Plant response rating, Foxtail, Giant ([1]; 125 g ai/ha) | Plant response rating, Rice (0 to 100 scale, 0 is no effect, 100 is complete control) (rice (Oryza sativa)) | Plant response rating, Corn (corn (Zea mays); 125 g ai/ha) | Plant response rating, Corn (corn (Zea mays); 500 g ai/ha) | Plant response rating, Barnyardgrass ([3]; 125 g ai/ha) | Plant response rating, Pigweed ([4]; 125 g ai/ha) | Plant response rating, Ryegrass, Italian ([5]; 125 g ai/ha) | Plant response rating, Ryegrass, Italian ([5]; 500 g ai/ha) | Plant response rating, Kochia (kochia (Kochia scoparia) [6]; 125 g ai/ha) | Plant response rating, Kochia (kochia (Kochia scoparia) [6]; 500 g ai/ha) | Plant response rating, Kochia (kochia (Kochia scoparia) [7]; 125 g ai/ha) | Plant response rating, Kochia (kochia (Kochia scoparia) [7]; 500 g ai/ha) | Plant response rating, Ryegrass, Italian ([8]; 125 g ai/ha) | Plant response rating, Wheat ([9]; 125 g ai/ha) | Plant response rating, Wheat ([9]; 500 g ai/ha) | Plant response rating, Blackgrass ([10]; 125 g ai/ha) | Plant response rating, Sedge, Umbrella (0 to 100 scale, 0 is no effect, 100 is complete control) [11] | Plant response rating, Foxtail, Giant ([12]; 125 g ai/ha) | Plant response rating, Barnyardgrass (0 to 100 scale, 0 is no effect, 100 is complete control) [15] | Plant response rating, Ducksalad (0 to 100 scale, 0 is no effect, 100 is complete control) [17] | Plant response rating, Ragweed ([18]; 125 g ai/ha)
